The nature of assay [1]: Anticancer activity against Mus musculus (mouse) EAC cells xenografted in albino mouse assessed as mean survival time at 100 mg/kg/day administered for 9 days (reference value: 17.33 +/-0.21 days). Type of assay: functional, Ehrlich.
Assay [2] can be described thus: Anticancer activity against Mus musculus (mouse) EAC cells xenografted in albino mouse assessed as increase in median life span at 50 mg/kg/day administered for 9 days. Format: functional, Ehrlich.
Assay [3] deals with HeLa. Briefly: Cell cycle arrest in Homo sapiens (human) HeLa cells assessed as accumulation of cells at S phase after 48 hr by FACS analysis (reference value: 6.34%). Format: functional.
Assay [4] in a line: Anticancer activity against Mus musculus (mouse) EAC cells xenografted in albino mouse assessed as increase in body weight at 100 mg/kg/day administered for 9 days measured on day 9 (reference value: 34.31 +/-1.06%). Type of assay: functional, Ehrlich.
Assay [5] deals with HeLa. Briefly: Cytotoxicity against Homo sapiens (human) HeLa cells assessed as morphological changes after 24 hr by microscopic analysis. Type of assay: functional, cell-based.
The nature of assay [6]: Anticancer activity against Mus musculus (mouse) EAC cells xenografted in albino mouse assessed as increase in mean life span at 50 mg/kg/day administered for 9 days. Format: functional, Ehrlich.
Assay [7] relates to MDA-MB-435. As to the kind of experiment: Cytotoxicity against Homo sapiens (human) MDA-MB-435 cells assessed as inhibition of cell viability by SRB assay. Type of assay: functional, cell-based.
A short description of assay [8]: Anticancer activity against Mus musculus (mouse) EAC cells xenografted in albino mouse assessed as increase in mean life span at 100 mg/kg/day administered for 9 days. Type of assay: functional, Ehrlich.
Assay [9] is described as follows: Anticancer activity against Mus musculus (mouse) EAC cells xenografted in albino mouse assessed as increase in body weight at 100 mg/kg/day administered for 9 days measured on day 15 (reference value: 58.81 +/-2.67%). Type of assay: functional, Ehrlich.
The test system of assay [10] is Rattus norvegicus. As to the kind of experiment: Anti-inflammatory activity in Wistar Rattus norvegicus (rat) assessed as inhibition of carrageenan-induced paw edema at 100 mg/kg/day, po measured after 3 hr. Format: functional.
The subject of assay [11] is HeLa. As to the kind of experiment: Cell cycle arrest in Homo sapiens (human) HeLa cells assessed as accumulation of cells at G2/M phase after 48 hr by FACS analysis (reference value: 18.65%). Type of assay: functional.
Assay [12] can be described thus: Anticancer activity against Mus musculus (mouse) EAC cells xenografted in albino mouse assessed as increase in body weight at 100 mg/kg/day administered for 9 days measured on day 6 (reference value: 16.31 +/-0.48%). Format: functional, Ehrlich.
Another assay deals with Ehrlich. Briefly: Anticancer activity against Mus musculus (mouse) EAC cells xenografted in albino mouse assessed as decrease in ascites fluid volume at 50 to 100 mg/kg/day administered for 9 days. Type of assay: functional, organism-based.
Assay [13] is described as follows: Anticancer activity against Mus musculus (mouse) EAC cells xenografted in albino mouse assessed as mean survival time at 50 mg/kg/day administered for 9 days (reference value: 17.33 +/-0.21 days). Type of assay: functional, Ehrlich.
Assay [14] can be described thus: Anticancer activity against Mus musculus (mouse) EAC cells xenografted in albino mouse assessed as increase in body weight at 100 mg/kg/day administered for 9 days measured on day 12 (reference value: 44.42 +/-2.82%). Format: functional, Ehrlich.
The test system of assay [15] is MDA-MB-435. As to the kind of experiment: Cytotoxicity against Homo sapiens (human) MDA-MB-435 cells assessed as inhibition of cell viability by MTT assay. Type of assay: functional, cell-based.
Assay [16] is described as follows: Anticancer activity against Mus musculus (mouse) EAC cells xenografted in albino mouse assessed as median survival time at 50 mg/kg/day administered for 9 days (reference value: 17 days). Type of assay: functional, Ehrlich.
Assay [17] relates to HeLa. Briefly: Cell cycle arrest in Homo sapiens (human) HeLa cells assessed as accumulation of cells at Sub-G0 phase after 48 hr by FACS analysis (reference value: 1.15%). Format: functional.
Assay [18] can be described thus: Anticancer activity against Mus musculus (mouse) EAC cells xenografted in albino mouse assessed as increase in median life span at 100 mg/kg/day administered for 9 days. Type of assay: functional, Ehrlich.
The nature of assay [19]: Anticancer activity against Mus musculus (mouse) EAC cells xenografted in albino mouse assessed as median survival time at 100 mg/kg/day administered for 9 days (reference value: 17 days). Format: functional, Ehrlich.
For assay [20], the system named is HeLa. Briefly: Cell cycle arrest in Homo sapiens (human) HeLa cells assessed as accumulation of cells at G0/G1 phase after 48 hr by FACS analysis (reference value: 74.27%). Format: functional.
Assay [21] in a line: Anticancer activity against Mus musculus (mouse) EAC cells xenografted in albino mouse assessed as increase in body weight at 100 mg/kg/day administered for 9 days measured on day 3 (reference value: 4.56 +/-0.52%). Format: functional, Ehrlich.
Assay [22] relates to MDA-MB-435. Briefly: Ratio of 6-aminoflavone IC50 to compound IC50 for Homo sapiens (human) MDA-MB-435 cells. Format: functional.
For assay [23], the system named is HeLa. Briefly: Cytotoxicity against Homo sapiens (human) HeLa cells assessed as inhibition of cell viability by SRB assay. Format: functional, cell-based.
For assay [24], the system named is HeLa. Briefly: Ratio of 6-aminoflavone IC50 to compound IC50 for Homo sapiens (human) HeLa cells. Format: functional.
Assay [25] relates to HeLa. Briefly: Cytotoxicity against Homo sapiens (human) HeLa cells assessed as inhibition of cell viability by MTT assay. Type of assay: functional, cell-based.
Assay [26] deals with Rattus norvegicus. As to the kind of experiment: Anti-inflammatory activity in Wistar Rattus norvegicus (rat) assessed as inhibition of carrageenan-induced paw edema at 50 mg/kg, po measured after 3 hr. Format: functional.

≈ marks a conversion by molar mass, not a printed value. Calls of active or inactive are those of the source. The rule behind the calls is not given here.

Turning to `COc1ccc(/C=C2/N=C(c3ccccc3)N(c3ccc4oc(-c5ccccc5)cc(=O)c4c3)C2=O)cc1OC`, the MST in assay [1] amounted to 23 days; in assay [13], 22.33 days; in [16], 22.5 days; in assay [19], 23 days. The Activity in [2] was determined as 32.35%; with HeLa [3], 14.1%; in assay [4] it was 13.63%; in assay [6] it was 28.87%; in [8] it was 32.72%; in [9] it was 19.99%. Moreover, the Activity with HeLa [11] is 28.37%; in [12] it was 9.39%; in [14], 17.47%; in the assay with HeLa [17] it was 21.63%; in assay [18], 35.29%; in the assay with HeLa [20], 36.8%. Also, the Activity in [21] came to 3.58%. Further, the result with HeLa [5] was Active. In addition, the IC50 is 11.9 µg/mL (≈ 22.6 µM) in the assay on MDA-MB-435 [7], 10.8 µg/mL (≈ 20.4 µM) with MDA-MB-435 [15], 11.1 µg/mL (≈ 21 µM) in the assay on HeLa [23] and 9.87 µg/mL (≈ 18.7 µM) in the assay on HeLa [25]. The inhibition in vivo at 100 mg/kg/day in the assay on Rattus norvegicus [10] came to 49.8%. For the same compound, in the assay on Ehrlich, the inhibition entry is “Active”. In addition, the “Ratio IC50” value with MDA-MB-435 [22] and in the assay on HeLa [24] was 5 each time.

On to `CC(C)Cc1ccc(C(C)C(=O)O)cc1` (stereo not drawn) [IBUPROFEN], for which the inhibition in vivo at 50 mg/kg in the assay with Rattus norvegicus [26] worked out at 67.1%.

For `O=C1/C(=C\c2ccc(O)cc2)N=C(c2ccccc2)N1c1ccc2oc(-c3ccccc3)cc(=O)c2c1`, the IC50 in the assay on MDA-MB-435 [7] turned out to be 21.4 µg/mL (≈ 44.1 µM); in the assay on MDA-MB-435 [15], 18 µg/mL (≈ 37.2 µM); with HeLa [23], 18.9 µg/mL (≈ 39 µM); with HeLa [25] it was 16.4 µg/mL (≈ 33.8 µM). Further, in the assay with Rattus norvegicus [10], the inhibition in vivo at 100 mg/kg/day came to 47.6%.

Regarding `COc1cccc2c1C(=O)c1c(O)c3c(c(O)c1C2=O)C[C@@](O)(C(=O)CO)C[C@@H]3O[C@H]1C[C@H](N)[C@H](O)[C@H](C)O1.Cl` [DOXORUBICIN HYDROCHLORIDE], the Activity in the assay with HeLa [3] is given as 4.01%; in the assay with HeLa [11], 76.76%; in the assay with HeLa [17], 2.22%; in the assay on HeLa [20] it was 16.62%. The results for the IC50 in the assay on MDA-MB-435 [7] and in the assay on MDA-MB-435 [15] were 0.93 µg/mL and 0.77 µg/mL, respectively.

Turning to `Nc1ccc2oc(-c3ccccc3)cc(=O)c2c1` [6-AMINOFLAVONE], the IC50 is 78.4 µg/mL (≈ 330 µM) in the assay with MDA-MB-435 [7], 59.5 µg/mL (≈ 251 µM) in the assay on MDA-MB-435 [15], 63.6 µg/mL (≈ 268 µM) in the assay with HeLa [23] and 55.8 µg/mL (≈ 235 µM) in the assay on HeLa [25]. Further, the inhibition in vivo at 100 mg/kg/day in the assay with Rattus norvegicus [10] was 24.2%.

Take `O=C1/C(=C\c2ccc(Cl)c(Cl)c2)N=C(c2ccccc2)N1c1ccc2oc(-c3ccccc3)cc(=O)c2c1`: the IC50 in the assay with MDA-MB-435 [7] was 20.1 µg/mL (≈ 37.5 µM); in the assay with MDA-MB-435 [15], 16.9 µg/mL (≈ 31.4 µM); in the assay with HeLa [23], 16 µg/mL (≈ 29.7 µM); with HeLa [25], 15.2 µg/mL (≈ 28.3 µM). For the same compound, the inhibition in vivo at 100 mg/kg/day with Rattus norvegicus [10] was found to be 36.5%.

Regarding `O=C1/C(=C\c2ccccc2)N=C(c2ccccc2)N1c1ccc2oc(-c3ccccc3)cc(=O)c2c1`, the IC50 in the assay with MDA-MB-435 [7] amounted to 26.4 µg/mL (≈ 56.3 µM); in the assay with MDA-MB-435 [15] it was 24.3 µg/mL (≈ 51.8 µM); in the assay on HeLa [23], 20.9 µg/mL (≈ 44.6 µM); with HeLa [25], 20.1 µg/mL (≈ 42.9 µM). The inhibition in vivo at 100 mg/kg/day with Rattus norvegicus [10] is 38.2%.

Turning to `COc1ccc(/C=C2/N=C(c3ccccc3)N(c3ccc4oc(-c5ccccc5)cc(=O)c4c3)C2=O)cc1`, the IC50 with MDA-MB-435 [7] was 21.7 µg/mL (≈ 43.6 µM); in the assay with MDA-MB-435 [15] it was 18.5 µg/mL (≈ 37.1 µM); in the assay with HeLa [23], 17.6 µg/mL (≈ 35.3 µM); in the assay with HeLa [25] it was 14.2 µg/mL (≈ 28.6 µM). Also, the inhibition in vivo at 100 mg/kg/day with Rattus norvegicus [10] turned out to be 45.1%.

The values are drawn from ChEMBL document CHEMBL3045147, “Synthesis and evaluation of a series of novel imidazolidinone analogues of 6-aminoflavone as anticancer and anti-inflammatory agents” (Med Chem Res, 2013).
